Values joined by “and” are separate entries in the source; they are usually repeats but may differ in a detail not shown here. Identical values can stand only once. “Also recorded” adds a separate entry of the source. Like-named read-outs stand apart in the source and are kept apart here.
Columns and labels:
[1] = target: T1, human serotonin 5-HT1A receptor (Homo sapiens, UniProt P08908); assay: cAMP 5-HT1A functional assay; format: cell-based
T1 construct: host or cells: CHO-K1
Protocol: Functional assays for 5-HT1A receptor
Tested and reference compounds were dissolved in DMSO to the concentration of 10 mM.
Dilutions were prepared in a 96-well microplate in assay buffers. For 5-HT1A receptors,
adenylyl cyclase activity was determined using cryopreserved CHO-K1 cells expressing the
The final concentration of DMSO in the test solutions was
The functional assay was performed with the CHO-K1 cells with expression of the 5-HT1A
The cells were cultured under selective conditions (400 μg/mL Geneticin G418)
(PerkinElmer). Thawed cells were resuspended in stimulation buffer (HBSS, 5 mM HEPES,
The same volume (10 μL) of cell
suspension was added to tested compounds with 10 μM forskolin. Samples were loaded onto
a white opaque half-area 96-well microplate. Cell stimulation was performed for 40 min at
room temperature. After incubation, cAMP measurements were performed with homogeneous
time-resolved fluorescence resonance energy transfer (TR-FRET) immunoassay using the
LANCE Ultra cAMP kit (PerkinElmer, USA). Ten microliters of EucAMP Tracer Working
Solution and 10 μL of ULight-anti-cAMP Tracer Working Solution were added, mixed, and
incubated for 1 h. The TR-FRET signal was read on an EnVision microplate reader
(PerkinElmer, USA). Emax values were defined as the ligand response expressed as a […]
which 50% of its maximal response was measured.

[2] = Metabolic stability in human liver microsomes; format: in vitro ADME; settings: 120 min incubation with HLMs
Protocol: The in silico prediction of the most probable sites of metabolism was done by MetaSite 6.0.1 software (Molecular Discovery Ltd, Hertfordshire, UK). The metabolic pathways determination in vitro was performed by 120 min compounds incubation with human liver microsomes (HLMs) purchased from Sigma-Aldrich, St. Louis, MO, USA. The reactions were conducted in 10 mM Tris–HCl buffer (pH 7.4) at 37 °C in the presence of NADPH Regeneration System (Promega, Madison, WI, USA). UPLC/MS analyses were done using the Waters ACQUITY TQD system with the TQ Detector (Waters, Milford, USA).
UPLC chromatograms of the reaction mixtures and the proposed structures of metabolites.
Figure S46. UPLC spectra after 120 min incubation of compound 6 with HLMs. 89.57% of the parent compound remained in the reaction mixture. One metabolite (M1, m/z = 460.30) […]
(1 picture or pasted object on this page, not shown here)

[3] = Pharmacokinetic study after i.g. administration; format: in vivo; settings: mice
Protocol: Pharmacokinetic study after i.p. and i.g administration
mg/kg), blood samples were collected from mice under deep terminal anesthesia directly by cardiac puncture into heparinized 1.5 mL tubes at selected time intervals.
The samples were centrifuged at 3,000 × g for 10 min (10 °C), and the plasma samples were stored at -80 °C until the HPLC analysis.
The blood in brain vessels would interfere with the assay of actual brain tissue concentrations.
Therefore, the animals were perfused transcardially with saline solution (0.9% NaCl) for 5 min (10 mL/min). After perfusion, the skull was opened, and the brain was carefully removed and immediately stored at -80 °C until the HPLC analysis.
UHPLC-MS method for pharmacokinetics study
Ultra high-performance liquid chromatography system consisting of Ultimate 3000 RS pump Dionex (Thermo Scientific, San Jose, CA, USA) coupled with high-resolution mass spectrometer with orbitrap analyzer (Q Exactive Focus, Thermo Scientific, San Jose, CA, USA) was used in quantitative analyses of 6 in plasma and brain homogenate. According to the EMA[43] and FDA[42] guidelines on Bioanalytical method validation, the method was fully validated for plasma and partially for brain homogenate.
Before analysis, 50 μL of plasma or brain homogenate was precipitated with an internal
standard of 200 μL acetonitrile (ACN). The mixture was vortexed for 1 min at 1,500 rpm and
centrifuged at 12,074 g for 5 min at 20 °C. The supernatant was then transferred to an
injection vial and analyzed.
mm ID (Phenomenex, Torrance, CA, USA), protected with a guard column SecurityGuard
was performed in gradient elution mode with a flow rate of 0.6 mL/min and the following
composition of mobile phase: A) 0.1% FA in water (v/v) and B) 0.1% FA in ACN/MeOH in
The column was kept at 45 °C during
analysis. Samples were held at 10 °C in a light-tight autosampler unit.
Heated-Electrospray Ionization II interface (HESI-II) in positive ion mode was used with the
following settings: spray voltage; +3.5 kV, S-lens RF level; +70 V, capillary temperature 350
°C, auxiliary gas heater temperature; 350 °C, sheet, and auxiliary gas flow; 45 and 15
arbitrary units, respectively. Full MS mode was used at resolution (m/𝛥m) ̴70,000 for
Xcalibur software (v 4.0) was used for data evaluation.

[4] = test system: mice; assay: Four-plate test (FPT); format: in vivo; settings: 0.1, 1 and 10 mg/kg i.p., vs control
Protocol: (§1) Animals and housing conditions
(§2) In all pharmacodynamic in vivo experiments, except for the Barnes maze (BM) task, adult male Albino Swiss (CD-1) mice weighing between 18 and 22 g and purchased from the Animal Breeding Farm of the Faculty of Pharmacy, Jagiellonian University Medical College were used. In BM task, C57BL/6J mice of the same weight (Animalab, Poland) were used.
Animals were housed in cages (10 mice per cage) at a constant temperature of 22 ± 2 °C, humidity of 55 ± 10%, and a light/dark (12:12) cycle (lights on at 7 AM). Before the experiments, the animals had unlimited access to food and water. […]
Briefly, mice were individually placed in a glass cylinder (25 cm high, 10 cm in diameter) containing 11 cm of water maintained at 23–25 °C and were left therein for 6 min. […] The total duration of immobility was measured during the final 4 min of a 6-min test session. […]
The four-plate apparatus (FPT; Bioseb, France) consists of a cage (25 × 18 × 16 cm) that is floored with four rectangular metal plates (11 × 8 cm). […] The number of punished crossings was counted […]
(§3) of the closed arms. […] The following parameters were measured in this test: time spent in open arms of the EPM device and the number of entries to open arms. […]

[5] = test system: mice; assay: Elevated plus maze (EPM); format: in vivo; settings: vs control
Protocol: as §1, §2
Animals were housed in cages (10 mice per cage) at a constant temperature of 22 ± 2 °C, humidity of 55 ± 10%, and a light/dark (12:12) cycle (lights on at 7 AM). Before the experiments, the animals had unlimited access to food and water. Specified conditions for the maintenance of mice were ensured throughout the experiments, including tree bedding (Transwior, Poland) and cage enrichment (tunnels, nesting material, wooden igloos, etc.). For the behavioral test, the mice were selected randomly; each group consisted of 7-12 mice. The experiments were performed between 9 AM and 3 PM. After in vivo tests, the animals were […]
Ethical approval statement
The procedures for the maintenance and treatment of laboratory animals were approved by the 1st Local Ethics Committee of the Jagiellonian University in Krakow (Approvals No. […]
as §3

T1 sequence (P08908 whole entry): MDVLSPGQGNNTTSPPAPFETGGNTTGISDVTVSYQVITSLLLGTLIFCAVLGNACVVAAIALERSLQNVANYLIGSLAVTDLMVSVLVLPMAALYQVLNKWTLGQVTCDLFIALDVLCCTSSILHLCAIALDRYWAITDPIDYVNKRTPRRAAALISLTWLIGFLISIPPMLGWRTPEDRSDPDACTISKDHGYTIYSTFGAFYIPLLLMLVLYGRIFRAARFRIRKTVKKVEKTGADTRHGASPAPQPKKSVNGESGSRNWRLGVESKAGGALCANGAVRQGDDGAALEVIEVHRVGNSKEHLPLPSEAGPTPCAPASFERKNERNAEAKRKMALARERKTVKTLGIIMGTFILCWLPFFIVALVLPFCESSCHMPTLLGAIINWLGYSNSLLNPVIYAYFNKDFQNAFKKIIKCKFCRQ

**Q.** For `O[C@H](CNCC1CC1)[C@H](Cc1ccccc1)NC1c2ccccc2-c2ccccc21` [Compound 6], which Emax ([1]; read-out: 5-HT1A agonist mode E max % [10^-5 M]) is on record?
**A.** Its Emax is 15%.

**Q.** And the Emax ([1]; read-out: 5-HT1A antagonist mode E max %)?
**A.** The Emax was 16%.

**Q.** What about the parent compound remaining [2] of the same compound?
**A.** Its parent compound remaining is 90% and 89.57%.

**Q.** And the Kp ([3]; ICR-CD1, mouse, brain and plasma, po, 10 mg/kg, 10 mg/kg i.g., read-out: Kp (AUCbrain/AUCplasma), brain-to-plasma ratio)?
**A.** Its Kp is 1.98.

**Q.** What about the Tmax ([3]; ICR-CD1, mouse, brain, po, 10 mg/kg, 10 mg/kg i.g., read-out: brain Tmax (converted)) of the same compound?
**A.** Its Tmax is 3.33 h.

**Q.** What about the Cmax ([3]; ICR-CD1, mouse, plasma, po, 10 mg/kg, 10 mg/kg i.g.) of the same compound?
**A.** Its Cmax is 120 ± 30.7 ng/mL.

**Q.** What about the half-life ([3]; ICR-CD1, mouse, plasma, po, 10 mg/kg, 10 mg/kg i.g., plasma, read-out: Half-life) of the same compound?
**A.** Its half-life is 3.54 ± 0.449 h.

**Q.** And the Vd/F ([3]; ICR-CD1, mouse, plasma, po, 10 mg/kg, 10 mg/kg i.g., plasma, read-out: Vss/F)?
**A.** Its Vd/F is 120 ± 22.1 L/kg.

**Q.** What about the Vd/F ([3]; ICR-CD1, mouse, plasma, po, 10 mg/kg, 10 mg/kg i.g., plasma, read-out: Vz/F) of the same compound?
**A.** Its Vd/F is 102 ± 22.9 L/kg.

**Q.** And the Tmax ([3]; ICR-CD1, mouse, plasma, po, 10 mg/kg, 10 mg/kg i.g., read-out: plasma Tmax (converted))?
**A.** The Tmax was 1.33 h.

**Q.** What about the MRT ([3]; ICR-CD1, mouse, po, 10 mg/kg i.g., plasma) of the same compound?
**A.** Its MRT is 6.08 h.

**Q.** And the k el ([3]; ICR-CD1, mouse, po, 10 mg/kg i.g., plasma, read-out: λz (converted))?
**A.** The k el was 6e-05 s⁻¹.

**Q.** And the “plasma AUCtotal i.g. as % of AUCtotal after i.p. administration of the same dose” value ([3]; 10 mg/kg)?
**A.** Its value is “approximately 60%”.

**Q.** What about the “brain AUCtotal” value ([3]; 10 mg/kg i.g.) of the same compound?
**A.** The value was 68,547.70 ± 9,216.46 min.ng/g.

**Q.** What about the “brain Cmax” value ([3]; 10 mg/kg i.g.) of the same compound?
**A.** The value was 158.63 ± 20.04 ng/g.

**Q.** What about the “plasma AUCtotal” value ([3]; 10 mg/kg i.g.) of the same compound?
**A.** Its value is 34,630.80 ± 4,866.51 min.ng/mL.

**Q.** And the CL ([3]; 10 mg/kg i.g., plasma)?
**A.** Its CL is 320 ± 50 mL/min/kg.

**Q.** And the half-life ([3]; 10 mg/kg i.g., plasma, 10 mg/kg)?
**A.** Its half-life is 3.53 h.

**Q.** And the “plasma Cmax” value ([3]; 10 mg/kg i.g., 10 mg/kg)?
**A.** Its value is 120 ng/mL.

**Q.** What about the “number of punished crossings” value [4] of the same compound?
**A.** Its value is “increased the number of punished crossings; also recorded: statistically significant increase in the number of punished crossings”.

**Q.** What about the “time spent in open arms” value ([5]; 0.1 and 1 mg/kg i.p.) of the same compound?
**A.** The value was “prolonged time spent in open arms; also recorded: significant prolongation of time spent in the open arms”.

**Q.** What about the “number of open arm entries” value ([5]; 1 and 10 mg/kg i.p.) of the same compound?
**A.** The value was “increased the number of open arm entries; also recorded: increased number of entries into the open arms”.
